Like-named read-outs stand apart in the source and are kept apart here.
What was measured:
5-lipoxygenase = molecular target: T1, 5-lipoxygenase (Rattus norvegicus, UniProt P12527); test: ARBL whole cell 5-lipoxygenase assay (RBL-1 cells, inhibition of LTB4 formation); assay type: cell-based; conditions: calcium ionophore A23187 (5 μM)
T1 construct: host or cells: RBL-1 (rat basophilic leukemia)
T1 sequence (P12527 1-673): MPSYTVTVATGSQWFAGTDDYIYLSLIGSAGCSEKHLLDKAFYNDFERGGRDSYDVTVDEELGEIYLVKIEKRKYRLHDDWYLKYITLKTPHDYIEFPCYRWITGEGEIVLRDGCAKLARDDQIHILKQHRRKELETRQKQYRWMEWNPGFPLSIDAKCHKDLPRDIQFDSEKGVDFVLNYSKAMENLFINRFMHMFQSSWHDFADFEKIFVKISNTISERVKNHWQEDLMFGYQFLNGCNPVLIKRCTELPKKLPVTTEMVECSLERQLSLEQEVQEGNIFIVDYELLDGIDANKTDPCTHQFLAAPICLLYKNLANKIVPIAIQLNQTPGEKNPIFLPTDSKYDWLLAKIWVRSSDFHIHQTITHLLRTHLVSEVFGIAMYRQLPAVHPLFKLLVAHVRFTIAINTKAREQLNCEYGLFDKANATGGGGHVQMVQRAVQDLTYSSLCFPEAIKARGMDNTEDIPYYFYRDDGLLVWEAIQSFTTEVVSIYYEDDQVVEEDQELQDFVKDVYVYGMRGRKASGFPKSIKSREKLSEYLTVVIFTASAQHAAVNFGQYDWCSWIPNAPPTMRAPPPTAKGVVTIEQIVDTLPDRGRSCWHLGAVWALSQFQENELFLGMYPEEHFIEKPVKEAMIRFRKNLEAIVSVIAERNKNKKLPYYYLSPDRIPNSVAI
Protocol: (§1) ARBL/ARBC WHOLE CELL 5-LIPOXYGENASE AND CYCLOOXYGENASE ASSAYS
(§2) The rat basophilic leukemia cell line (RBL-1) was obtained from the American Type Culture Collection (Rockville, Md.).
(§3) Radioimmunoassay (RIA) kits of LTB4 and PGF2α were obtained from Amersham (Arlington Heights, Ill.) and Seragen (Boston, Mass.), respectively.
(§4) All tissue culture media were obtinaed from GIBCO (Grand Island, N.Y.).
(§5) RBL-1 cells are grown in suspension culture in Eagle's minimum essential medium supplemented with 12% fetal bovine serum at 37° C. in an incubator supplied with air-5% carbon dioxide. Cells are harvested by centrifugation. They are washed with cold phosphate-buffered saline, pH 7.4 (PBS; NaCl, 7.1 g; Na2 HPO4, 1.15 g; KH2 PO4, 0.2 g; and KCl, 0.2 g/L). Cells are finally suspended in PBS containing 1.0 mM calcium at a density of 2×10^6 cells/mL. Cells are incubated […] test agent (in DMSO) (1% DMSO is without effect on arachidonic acid metabolism) for 10 minutes at room temperature. Calcium ionophore A23187 (5 μM) is added and cells are incubated for 7 minutes at 37° C. The reaction is stopped by chilling the tubes on ice for 10 minutes. Cells are separated by centrifugation and the supernatant is stored at -20° C. Aliquots (100 μL) are anlyzed for LTB4 and PGF2α using radioimmunoassay kits as provided by the supplier.
(§6) Table 1 contains biochemical data for compounds of formula I obtained from this whole cell assay as amount of inhibition at 10 μM or IC50 s which are calculated as the concentration of a test compound in micromoles (μM) causing 50% inhibition of LTB4 or PGF2α formation.

[1] = test system: Mycobacterium-Induced Rat Footpad Edema; test: Mycobacterium-Induced Rat Footpad Edema Assay (MFE); assay type: in vivo; conditions: at 10 m/k, dosed one hour before Mycobacterium and Days 1 and 2, 72 hours
Protocol: Mycobacterium - Induced Rat Footpad Edema Assay (MFE): Protocol Mycobacterium butyricum (5 mg/ml) is suspended in paraffin oil by sonication for ten minutes in an ice bath. Footpad edema is induced on Day 0 by injecting 0.1 ml of the Mycobacterium mixture into the left hindpaw of lightly anesthetized rats. Swelling in the injected hindpaw is determined by mercury plethysmography 72 hours after injection. Groups of rats are treated with test compounds (suspended in 0.5% hydroxypropyl methylcellulose with 0.2% Tween-80) or vehicle one hour before Mycobacterium injection and on Days 1 and 2. Inhibition of swelling is determined by comparing the change in hindpaw volume in compound- and vehicle-treated rats. An ID40 (the dose at which swelling is inhibited by 40%) is calculated by probit analysis. Table 1 also contains biochemical data for compounds of formula I obtained from the CFE and MFE assays.

cyclooxygenase = molecular target: T2, cyclooxygenase (Rattus norvegicus, UniProt Q63921); test: ARBC whole cell cyclooxygenase assay (RBL-1 cells, inhibition of PGF2α formation); assay type: cell-based; conditions: calcium ionophore A23187 (5 μM)
T2 construct: host or cells: RBL-1 (rat basophilic leukemia)
T2 sequence (Q63921 27-602): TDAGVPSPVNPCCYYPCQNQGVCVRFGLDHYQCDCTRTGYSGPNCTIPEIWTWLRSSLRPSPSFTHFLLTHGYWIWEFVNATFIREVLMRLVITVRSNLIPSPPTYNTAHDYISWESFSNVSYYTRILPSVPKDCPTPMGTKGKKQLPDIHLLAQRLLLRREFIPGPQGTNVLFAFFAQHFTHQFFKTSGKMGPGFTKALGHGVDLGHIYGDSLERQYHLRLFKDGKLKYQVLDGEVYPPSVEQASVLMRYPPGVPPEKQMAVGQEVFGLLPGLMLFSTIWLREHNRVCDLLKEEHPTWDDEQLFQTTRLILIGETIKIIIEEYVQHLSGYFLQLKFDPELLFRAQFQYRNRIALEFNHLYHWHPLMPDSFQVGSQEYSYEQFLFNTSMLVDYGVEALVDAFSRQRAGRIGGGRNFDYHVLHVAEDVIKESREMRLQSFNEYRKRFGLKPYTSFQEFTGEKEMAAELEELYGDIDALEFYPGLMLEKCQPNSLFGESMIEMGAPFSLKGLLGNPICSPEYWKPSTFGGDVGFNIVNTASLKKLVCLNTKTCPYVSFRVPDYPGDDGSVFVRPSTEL
Protocol: as §1, §2, §3, §4, §5, §6

[2] = test system: Carrageenan-Induced Rat Foot Paw Edema; test: Carrageenan-Induced Rat Foot Paw Edema-2 (CFE-2) Assay; assay type: in vivo; conditions: at 10 m/k, dosed one hour before carrageenan, edema at five hours
Protocol: Carrageenan-Induced Rat Foot Paw Edema-2 (CFE-2) Assay: Protocol
Carrageenan solution (1% w/v) is prepared by dissolving 100 mg carrageenan (Marine Colloidal Div., Springfield N.J.) in 10 ml of sterile saline (0.9%) solution (travenol). The solution is vortexed for 30 to 45 minutes. Animals are dosed with compound one hour before carrageenan challenge. Foot paw edema is induced by injecting 0.10 ml of the 1% carrageenan subcutaneously into the plantar portion of the right hind paw of each rat under light anesthesia. Initial foot paw volume is measured immediately following carrageenan challenge using mercury plethysmography (Buxco Electronics). Edema is measured five hours after carrageenan. The difference between the five-hour and the initial paw volume is expressed as delta edema. The delta edema for each test group of animals is used to calculate the percent inhibition of edema achieved by the compound at the test dose compared with the vehicle control group. The ID40 (the dose at which swelling is inhibited by 40%) is calculated by probit analysis for the dose at which 40 percent inhibition occurs.
Table 1 also contains biochemical data for compounds of formula I obtained from the CFE and MFE assays.

[3] = read-out: ARBC, inhibition of PGF2α (class symbol N)
[4] = read-out: ARBC, inhibition of PGF2α

inhibition at 10 µM (5-lipoxygenase) [%] | inhibition at 10 µM (cyclooxygenase; [3]) [%] | Compound | other results
 |  | CC(C)(C)c1cc(/C=C2\C(=O)Nc3ccccc32)cc(C(C)(C)C)c1O [Example 1, 3-[[3,5-bis(1,1-dimethylethyl)-4-hydroxyphenyl]methylene]1,3,-dihydro-2H-indole-2-one, (Z)-] | IC50 (5-lipoxygenase): 930 nM; MFE, inhibition of swelling [1]: 42%; IC50 (cyclooxygenase): 1500 nM
100 | < 40 | Cc1ccc2c(c1)/C(=C/c1cc(C(C)(C)C)c(O)c(C(C)(C)C)c1)C(=O)N2 [Example 2, 3-[[3,5-Bis(1,1-dimethylethyl)-4-hydroxyphenyl]-methylene]-1,3-dihydro-5-methyl-2H-indole-2-one, (Z)] | 
100 |  | CC(C)(C)c1cc(/C=C2\C(=O)N(C(N)=O)c3ccccc32)cc(C(C)(C)C)c1O [Example 3] | inhibition at 10 µM (cyclooxygenase; [4]): 32%
100 |  | CN1C(=O)/C(=C\c2cc(C(C)(C)C)c(O)c(C(C)(C)C)c2)c2ccccc21 [Example 4] | inhibition at 10 µM (cyclooxygenase; [4]): 30%
 |  | COc1cccc2c1NC(=O)/C2=C\c1cc(C(C)(C)C)c(O)c(C(C)(C)C)c1 [Example 5, 3-[[3,5-bis(1,1-dimethylethyl)-4-hydroxyphenyl]-methylene]-1,3-dihydro-7-methoxy-2H-indol-2-one, (Z)-] | IC50 (5-lipoxygenase): 430 nM; MFE, inhibition of swelling [1]: 33%; CFE, inhibition of edema [2]: 43%; IC50 (cyclooxygenase): 6070 nM
100 | < 40 | CCOC(=O)c1ccc2c(c1)/C(=C/c1cc(C(C)(C)C)c(O)c(C(C)(C)C)c1)C(=O)N2 [Example 6, 3-[[3,5-bis(1,1-dimethylethyl)-4-hydroxyphenyl]-methylene]-2,3-dihydro-2-oxo-1H-indole-5-carboxylic acid, ethyl ester (Z)-] | 
100 | < 40 | Cc1cccc2c1NC(=O)/C2=C\c1cc(C(C)(C)C)c(O)c(C(C)(C)C)c1 [Example 7] | 
100 | < 40 | COc1ccc2c(c1)/C(=C/c1cc(C(C)(C)C)c(O)c(C(C)(C)C)c1)C(=O)N2C [Example 8, 3-[[3,5-bis(1,1-dimethylethyl)-4-hydroxyphenyl]methylene]-1,3-dihydro-5-methoxy-1-methyl-2H-indole-2-one, (Z)-] | 
48 | < 40 | CC(C)(C)c1cc(/C=C2\C(=O)Nc3cccc(Cl)c32)cc(C(C)(C)C)c1O [Example 9, 3-[[3,5-bis(1,1-dimethylethyl)-4-hydroxyphenyl]methylene]-4-chloro-1,3-dihydro-2H-indole-2-one, (Z)-] | 
100 | < 40 | Cc1cccc2c1/C(=C/c1cc(C(C)(C)C)c(O)c(C(C)(C)C)c1)C(=O)N2 [Example 10, 3-[[3,5-bis(1,1-dimethylethyl)-4-hydroxyphenyl]methylene]-1,3-dihydro-4-methyl-2H-indole-2-one, (Z)-] | 
100 | < 40 | CC(C)(C)c1cc(/C=C2\C(=O)Nc3ccc(C(=O)O)cc32)cc(C(C)(C)C)c1O [Example 12, 3-[[3,5-bis(1,1-dimethylethyl)-4-hydroxyphehyl]methylene]-2,3-dihydro-2-oxo-1H-indole-5-carboxylic acid, (Z)-] | 

Source: patent US5124347A, “3-5-ditertiarybutylphenyl-4-hydroxymethylidene derivatives of 1,3-dihydro-2H-indole-2-ones as antiinflammatory agents” (Warner-Lambert Co., priority 1991, dated 1992)
